According to patent US9670227B2, “Thienopyrimidine derivatives, a process for their preparation and pharmaceutical compositions containing them” (LES LABORATOIRES SERVIER, priority 2013, dated 2017):
Where two headings read alike, the source gives them in different places.

Target: Mcl-1 protein (UniProtKB primary accession number: Q07820) (Homo sapiens, UniProt Q07820)
Assay: Inhibition of Mcl-1 by fluorescence polarisation, Method 1
Assay type: binding
Conditions: for IC50: read-out: IC50 (M) Mcl-1 FP; for percentage fluorescence polarisation inhibition, Mcl-1 FP: partial inhibitors, @ 10 uM test compound; for percentage fluorescence polarisation inhibition (Mcl-1 FP), partial inhibitors: test compound at 10 uM
Summary of the method: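 FP readout of relative binding potency. Mcl-1 5 nM final, fluorescein-labelled ligand 1 nM final; buffer 10 mM HEPES, 150 mM NaCl, 0.05% Tween 20, pH 7.4; 11-pt dilution series, 5% DMSO final.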

[1] = fluorescence polarisation, Method 1, or Method 2
[2] = Method 1, or Method 2 where the value is underlined (underlining not visible)
[3] = fluorescence polarisation test, Method 2 values are underlined in the patent (underlining not visible here)
[4] = fluorescence polarisation test, Method 1, or Method 2 where the value is underlined (underlining not visible)

Sequence of Mcl-1 protein (Q07820 whole entry): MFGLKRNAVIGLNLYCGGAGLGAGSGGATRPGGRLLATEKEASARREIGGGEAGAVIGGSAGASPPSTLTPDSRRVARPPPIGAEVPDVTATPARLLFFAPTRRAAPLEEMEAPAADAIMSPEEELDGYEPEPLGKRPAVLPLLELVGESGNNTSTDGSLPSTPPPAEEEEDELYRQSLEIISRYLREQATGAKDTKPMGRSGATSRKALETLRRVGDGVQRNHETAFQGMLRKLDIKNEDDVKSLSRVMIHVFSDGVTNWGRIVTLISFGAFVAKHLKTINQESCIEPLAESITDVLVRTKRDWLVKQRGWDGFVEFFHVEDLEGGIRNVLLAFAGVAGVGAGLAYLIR

SMILES: COc1cnc(C)cc1-c1nccc(COc2ccccc2CC(Oc2ncnc3sc(-c4ccc(F)cc4)c(-c4ccc(OCCN5CCN(C)CC5)c(Cl)c4C)c23)C(=O)O)n1 [Example 734, (2R)-2-{[(5Sa)-5-{3-chloro-2-methyl-4-[2-(4-methylpiperazin-1-yl)ethoxy]phenyl}-6-(4-fluorophenyl)thieno[2,3-d]pyrimidin-4-yl]oxy}-3-(2-{[2-(5-methoxy-2-methylpyridin-4-yl)pyrimidin-4-yl]methoxy}phenyl)propanoic acid]
- IC50 [1]: 9.48e-10 M

SMILES: CCc1sc2ncnc(O[C@H](Cc3ccccc3)C(=O)O)c2c1-c1ccc(OCCN2CCOCC2)c(Cl)c1C [Example 421, (2R)-2-[((5Ra)-5-{3-chloro-2-methyl-4-[2-(morpholin-4-yl)ethoxy]phenyl}-6-ethylthieno[2,3-d]pyrimidin-4-yl)oxy]-3-phenylpropanoic acid]
- percentage fluorescence polarisation inhibition, Mcl-1 FP: 38.1% @ 10 uM

SMILES: CCOC(=O)[C@@H](Cc1ccccc1OC)Oc1ncnc2sc(-c3ccc(F)cc3)c(-c3ccc(OC)c(Cl)c3C)c12 [Example 842, ethyl (2R)-2-{[(5Sa)-5-(3-chloro-4-methoxy-2-methylphenyl)-6-(4-fluorophenyl)thieno[2,3-d]pyrimidin-4-yl]oxy}-3-(2-methoxyphenyl)propanoate]
- percentage fluorescence polarisation inhibition (Mcl-1 FP), partial inhibitors [2]: 7.65% @ 10 uM

SMILES: CCOC(=O)[C@@H](Cc1ccccc1OCc1ccnn1C(C)C)Oc1ncnc2sc(-c3ccc(F)cc3)c(-c3ccc(OCCN4CCN(C)CC4)c(Cl)c3C)c12 [Example 624, ethyl (2R)-2-{[(5Sa)-5-{3-chloro-2-methyl-4-[2-(4-methylpiperazin-1-yl)ethoxy]phenyl}-6-(4-fluorophenyl)thieno[2,3-d]pyrimidin-4-yl]oxy}-3-(2-{[1-(propan-2-yl)-1H-pyrazol-5-yl]methoxy}phenyl)propanoate]
- percentage fluorescence polarisation inhibition, Mcl-1 FP: 26.95% @ 10 uM

SMILES: COc1ccccc1C[C@@H](Oc1ncnc2sc(-c3ccc(F)cc3)c(-c3ccc(OC)c(Cl)c3C)c12)C(=O)OCC(=O)N(C)C [Example 845, 2-(dimethylamino)-2-oxoethyl (2R)-2-{[(5Sa)-5-(3-chloro-4-methoxy-2-methylphenyl)-6-(4-fluorophenyl)thieno[2,3-d]pyrimidin-4-yl]oxy}-3-(2-methoxyphenyl)propanoate]
- percentage fluorescence polarisation inhibition (Mcl-1 FP), partial inhibitors [2]: 7.85% @ 10 uM

SMILES: Cc1c(-c2c(-c3ccc(F)cc3)sc3ncnc(OC(Cc4ccccc4OCc4cnccn4)C(=O)O)c23)ccc(OCCN2CCOCC2)c1Cl [Example 148, (2R)-2-{[(5Sa)-5-{3-chloro-2-methyl-4-[2-(morpholin-4-yl)ethoxy]phenyl}-6-(4-fluorophenyl)thieno[2,3-d]pyrimidin-4-yl]oxy}-3-[2-(pyrazin-2-ylmethoxy)phenyl]propanoic acid]
- IC50 [3]: 3.1e-08 M

SMILES: Cc1c(-c2c(-c3ccc(F)cc3)sc3ncnc(OC(Cc4ccccc4OCC(F)(F)F)C(=O)O)c23)ccc(OCC2CCCN2C)c1Cl (single isomer, unassigned) [Example 659, (2R)-2-{[(5Sa)-5-{3-chloro-2-methyl-4-[((2R or S)-1-methylpyrrolidin-2-yl)methoxy]phenyl}-6-(4-fluorophenyl)thieno[2,3-d]pyrimidin-4-yl]oxy}-3-[2-(2,2,2-trifluoroethoxy)phenyl]propanoic acid]
- IC50 [1]: 2.2e-08 M

SMILES: COc1ccccc1CC(Oc1ncnc2sc(C3CCCO3)c(-c3ccc(OCCN4CCN(C)CC4)c(Cl)c3C)c12)C(=O)O (single isomer, unassigned) [Example 590, (2R)-2-{[(5Sa)-5-{3-chloro-2-methyl-4-[2-(4-methylpiperazin-1-yl)ethoxy]phenyl}-6-((2S or R)-tetrahydrofuran-2-yl)thieno[2,3-d]pyrimidin-4-yl]oxy}-3-(2-methoxyphenyl)propanoic acid]
- IC50 [1]: 8.4e-08 M

SMILES: Cc1c(-c2c(-c3ccc(F)cc3)sc3ncnc(OC(Cc4ccccc4OCc4ccnc(-c5ccco5)n4)C(=O)O)c23)ccc(OCCN2CCN(C)CC2)c1Cl [Example 117, (2R)-2-{[(5Sa)-5-{3-chloro-2-methyl-4-[2-(4-methylpiperazin-1-yl)ethoxy]phenyl}-6-(4-fluorophenyl)thieno[2,3-d]pyrimidin-4-yl]oxy}-3-(2-{[2-(furan-2-yl)pyrimidin-4-yl]methoxy}phenyl)propanoic acid]
- IC50 [3]: 6.1e-09 M

SMILES: CCc1sc2ncnc(OC(Cc3ccccc3)C(=O)O)c2c1-c1ccc(OCC(=O)N2CCN(C)CC2)c(Cl)c1C [Example 392, (2R)-2-[((5Sa)-5-{3-chloro-2-methyl-4-[2-(4-methylpiperazin-1-yl)-2-oxoethoxy]phenyl}-6-ethylthieno[2,3-d]pyrimidin-4-yl)oxy]-3-phenylpropanoic acid]
- IC50 [3]: 3e-08 M

SMILES: COc1ccccc1-c1nccc(COc2ccccc2CC(Oc2ncnc3sc(-c4ccc(F)cc4)c(-c4ccc(OCCN5CC6(CN(C)C6)C5)c(Cl)c4C)c23)C(=O)O)n1 [Example 833, (2R)-2-{[(5Sa)-5-{3-chloro-2-methyl-4-[2-(6-methyl-2,6-diazaspiro[3.3]hept-2-yl)ethoxy]phenyl}-6-(4-fluorophenyl)thieno[2,3-d]pyrimidin-4-yl]oxy}-3-(2-{[2-(2-methoxyphenyl)pyrimidin-4-yl]methoxy}phenyl)propanoic acid]
- IC50 [4]: 3.35e-09 M

SMILES: CCc1sc2ncnc(OC(Cc3ccccc3)C(=O)O)c2c1-c1cc2ccoc2c(Cl)c1C [Example 443, (2R)-2-{[(5Sa)-5-(7-chloro-6-methyl-1-benzofuran-5-yl)-6-ethylthieno[2,3-d]pyrimidin-4-yl]oxy}-3-phenylpropanoic acid]
- IC50 [1]: 1.8e-08 M

SMILES: COc1ncc(Br)c(COc2ccccc2C[C@@H](Oc2ncnc3sc(-c4ccc(F)cc4)c(-c4ccc(OCCN5CCN(C)CC5)c(Cl)c4C)c23)C(=O)O)n1 [Example 99, (2R)-3-{2-[(5-bromo-2-methoxypyrimidin-4-yl)methoxy]phenyl}-2-{[(5Sa)-5-{3-chloro-2-methyl-4-[2-(4-methylpiperazin-1-yl)ethoxy]phenyl}-6-(4-fluorophenyl)thieno[2,3-d]pyrimidin-4-yl]oxy}propanoic acid]
- IC50 [3]: 2e-08 M

SMILES: CCc1sc2ncnc(OC(Cc3ccccc3)C(=O)O)c2c1-c1ccc(OCCCc2ccncc2)c(Cl)c1C [Example 399, (2R)-2-[((5Sa)-5-{3-chloro-2-methyl-4-[3-(pyridin-4-yl)propoxy]phenyl}-6-ethylthieno[2,3-d]pyrimidin-4-yl)oxy]-3-phenylpropanoic acid]
- IC50 [1]: 1.4e-08 M

SMILES: CCOC(=O)C(Cc1ccccc1OCc1ccnc(-c2ccccc2O)n1)Oc1ncnc2sc(-c3ccc(F)cc3)c(-c3ccc(OCCN4CCN(C)CC4)c(Cl)c3C)c12 [Example 793, ethyl (2R)-2-{[(5Sa)-5-{3-chloro-2-methyl-4-[2-(4-methylpiperazin-1-yl)ethoxy]phenyl}-6-(4-fluorophenyl)thieno[2,3-d]pyrimidin-4-yl]oxy}-3-(2-{[2-(2-hydroxyphenyl)pyrimidin-4-yl]methoxy}phenyl)propanoate]
- IC50 [4]: 5.37e-06 M

SMILES: CCOC(=O)[C@@H](Cc1ccccc1OC)Oc1ncnc2sc(-c3ccc(F)cc3)c(-c3ccc(OCCN4CCN(C)CC4)c(Cl)c3C)c12 [Example 642, ethyl (2R)-2-{[(5Sa)-5-{3-chloro-2-methyl-4-[2-(4-methylpiperazin-1-yl)ethoxy]phenyl}-6-(4-fluorophenyl)thieno[2,3-d]pyrimidin-4-yl]oxy}-3-(2-methoxyphenyl)propanoate]
- percentage fluorescence polarisation inhibition, Mcl-1 FP: 11% @ 10 uM

SMILES: COCCOC(=O)[C@@H](Cc1ccccc1OCc1ccnc(-c2ccccc2F)n1)Oc1ncnc2sc(-c3ccc(F)cc3)c(-c3ccc(OCCN(C)C)c(Cl)c3C)c12 [Example 799, 2-methoxyethyl (2R)-2-{[(5Sa)-5-{3-chloro-4-[2-(dimethylamino)ethoxy]-2-methylphenyl}-6-(4-fluorophenyl)thieno[2,3-d]pyrimidin-4-yl]oxy}-3-(2-{[2-(2-fluorophenyl)pyrimidin-4-yl]methoxy}phenyl)propanoate]
- percentage fluorescence polarisation inhibition (Mcl-1 FP), partial inhibitors [2]: 59.6% @ 10 uM

SMILES: CC#Cc1sc2ncnc(O[C@H](Cc3ccccc3OC)C(=O)O)c2c1-c1cc(F)c(OC)c(Cl)c1C (single isomer, unassigned) [Example 471]
- IC50 [1]: 6.3e-09 M

SMILES: CCOC(=O)[C@@H](Cc1ccccc1OC)Oc1ncnc2sc(-c3ccsc3)c(-c3ccc(OCCN4CCN(C)CC4)c(Cl)c3C)c12 [Example 633, ethyl (2R)-2-{[(5Sa)-5-{3-chloro-2-methyl-4-[2-(4-methylpiperazin-1-yl)ethoxy]phenyl}-6-(thiophen-3-yl)thieno[2,3-d]pyrimidin-4-yl]oxy}-3-(2-methoxyphenyl)propanoate]
- percentage fluorescence polarisation inhibition, Mcl-1 FP: 40.2 % @ 10 uM

SMILES: Cc1c(-c2c(-c3ccc(F)cc3)sc3ncnc(OC(Cc4ccccc4OCc4ccnn4C(C)(C)C)C(=O)OCC(=O)N(C)C)c23)ccc(OCCN(C)C)c1Cl [Example 817, 2-(dimethylamino)-2-oxoethyl (2R)-3-{2-[(1-tert-butyl-1H-pyrazol-5-yl)methoxy]phenyl}-2-{[(5Sa)-5-{3-chloro-4-[2-(dimethylamino)ethoxy]-2-methylphenyl}-6-(4-fluorophenyl)thieno[2,3-d]pyrimidin-4-yl]oxy}propanoate]
- IC50 [4]: 4.75e-07 M

SMILES: COc1ccccc1CC(Oc1ncnc2sc(-c3ccco3)c(-c3ccc(OCCN4CCN(c5ccccc5)CC4)c(Cl)c3C)c12)C(=O)O [Example 325, (2R)-2-{[(5Sa)-5-{3-chloro-2-methyl-4-[2-(4-phenylpiperazin-1-yl)ethoxy]phenyl}-6-(furan-2-yl)thieno[2,3-d]pyrimidin-4-yl]oxy}-3-(2-methoxyphenyl)propanoic acid]
- IC50 [3]: 5.2e-08 M
